These results are taken from publication PMC12797170, “Potent Competitive Inhibitors of Ecto-5′-nucleotidase (CD73) based on 6‑(Het)aryl-7-deazapurine Ribonucleoside 5′‑O‑Bisphosphonates” (ACS Pharmacology & Translational Science, 2025).

Structures are written as SMILES. pIC50: −log10 of the molar value. ≈ marks a conversion by molar mass, not a printed value.

The nature of data set [1]: Microsomal stability assay, mouse liver microsomes. The class given is in vitro ADME. Particulars: for Mics (m) comp remaining 60 min: 10 μM; for microsomal CLint at 10 µM: pooled liver microsomes, pH 7.4, read-out: Mics (m) CLint.
The nature of data set [2]: Plasma protein binding, equilibrium dialysis, human plasma. Particulars: undiluted plasma. It counts as in vitro ADME.
In data set [3] the target is T1, recombinant human CD73 (hCD73) (Homo sapiens, UniProt P21589).
T1 sequence (P21589 27-574): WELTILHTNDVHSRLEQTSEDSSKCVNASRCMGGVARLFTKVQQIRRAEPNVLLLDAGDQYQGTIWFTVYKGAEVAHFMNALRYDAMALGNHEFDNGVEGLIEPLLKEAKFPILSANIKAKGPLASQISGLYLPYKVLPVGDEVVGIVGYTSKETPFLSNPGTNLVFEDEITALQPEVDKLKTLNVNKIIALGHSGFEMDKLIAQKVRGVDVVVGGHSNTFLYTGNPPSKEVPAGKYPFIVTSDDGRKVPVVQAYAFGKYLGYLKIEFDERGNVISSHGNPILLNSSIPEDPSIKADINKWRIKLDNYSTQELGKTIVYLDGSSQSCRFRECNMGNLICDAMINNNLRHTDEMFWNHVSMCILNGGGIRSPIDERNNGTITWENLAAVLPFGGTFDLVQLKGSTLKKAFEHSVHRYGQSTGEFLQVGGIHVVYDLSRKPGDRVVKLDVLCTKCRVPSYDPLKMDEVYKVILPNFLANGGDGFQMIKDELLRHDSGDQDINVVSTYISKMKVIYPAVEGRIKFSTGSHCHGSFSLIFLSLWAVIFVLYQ
As to the kind of experiment: CD73 activity assay on recombinant human CD73. It counts as biochemical. Particulars: ΔGexp = RT ln Ki.

Data set [4] can be described thus: In vivo pharmacokinetic study, intravenous. Also on record: species or system male CD-1 mice. Particulars: plasma, 1 mg/kg, intravenous; for half-life: male, CD-1, mouse, iv, footnote: t1/2 stability in plasma, text: half-life in mouse PK; for clearance: mouse, male CD-1 mice, single dose, read-out: Cl (obs), observed clearance. Here is the method: The pharmacokinetic study was performed by Bienta (Enamine Biology Services) using male CD-1 mice (3 animals, 9 weeks old, body weight ranging from 29.2 to 33.7 g) following intravenous administration. Levels of the test compound were determined by LC-MS/MS in blood plasma over time (seven sampling time points: 5, 15, 30, 60, 120, 240, and 480 min) after a single dose.
Animal treatment and samples preparation were conducted by the Animal Laboratory personnel at Enamine/Bienta.

Data set [5] in a line: Kinetic solubility in PBS. The class given is physicochemical. Particulars: phosphate-buffered saline, pH 7.4, aqueous buffer, kinetic from dmso stock. The gist of the method: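 Echo-MS quantitation with calibration from 0.05 to 4 μM, after 1:99 dilution of filtrate into 50% acetonitrile. Filtrate came from a 100 μM PBS (pH 7.4) solution equilibrated 2 h at room temperature with shaking, in duplicate.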

Data set [6] is described as follows: in vitro. Particulars: mouse, plasma.
The nature of data set [7]: Plasma protein binding, mouse plasma. The class given is in vitro ADME. Particulars: mouse, plasma.
The nature of data set [8]: in vitro. Particulars: human, plasma.
The test system of data set [9] is HL-60. Description: In vitro cytotoxic activity. It counts as cell-based. Particulars: Homo sapiens. The method, then:
(§1) All the compounds were also tested for their in vitro cytotoxic activity on a small panel of four cancer cell lines (CCRF-CEM, HepG2, HeLa S3, HL-60) and nonmalignant human dermal fibroblasts (NHDF).

Data set [10] concerns nonmalignant human dermal fibroblasts (NHDF). As to the kind of experiment: In vitro cytotoxic activity. It counts as cell-based. The method, then:
as §1

The test system of data set [11] is HepG2. As to the kind of experiment: In vitro cytotoxic activity. Particulars: Homo sapiens. The class given is cell-based. Here is the method: as §1
Data set [12] concerns CCRF-CEM. As to the kind of experiment: In vitro cytotoxic activity. The class given is cell-based. Particulars: Homo sapiens. Here is the method: as §1
Data set [13] has as its system HeLa S3. Description: In vitro cytotoxic activity. It counts as cell-based. Particulars: Homo sapiens. The method, then: as §1
The nature of data set [14]: Microsomal stability assay, human liver microsomes. It counts as in vitro ADME. Particulars: for Mics (hu) comp remaining 60 min: 10 μM; for microsomal CLint at 10 µM: pooled liver microsomes, pH 7.4, read-out: Mics (hu) CLint.
Setting [15] is: human plasma protein binding, read-out: PPB (hu) (converted).
The mark [16] stands for this setting: Tables 2 and 4, mouse plasma, read-out: fup, fraction unbound in mouse plasma.
Setting [17] is: mouse plasma protein binding, read-out: PPB (m) (converted).

For `O=P(O)(O)CP(=O)(O)OC[C@H]1O[C@@H](n2ccc3c(-c4ccc5ccccc5c4)nc(Cl)nc32)[C@H](O)[C@@H]1O` [7B.7], the “Mics (m) comp remaining 60 min” value in [1] is reported as 106%. Further, the microsomal CLint at 10 µM in data set [1] and in data set [14] was less than 1 µL/min/mg in each case. In addition, the figures for the fraction unbound at 4 h, 100 µM in data set [2] (setting [15]), in [7] (setting [16]) and in data set [7] (setting [17]) were 0.033, 0.11 and 0.112, respectively. The “dG_exp, experimental binding free energy” value in data set [3] is “–15.9 kcal/mol”. Also, the half-life in data set [4] amounted to 0.122 h. In data set [4], the clearance came to 8.3 mL/min/kg. This compound displayed a solubility at 2 h in data set [5] of 84 µM (≈ 47.9 µg/mL). The half-life at 10 µM in [6] and in [8] was greater than 2 h in each case. The negative-log IC50 (pIC50) in [9], in data set [10], in [11], in data set [12] and in data set [13] was less than 5.00 in each case. The “Mics (hu) comp remaining 60 min” value in [14] amounted to 111%.
`O=P(O)(O)CP(=O)(O)OC[C@H]1O[C@@H](n2ccc3c(-c4cc5ccccc5o4)nc(Cl)nc32)[C@H](O)[C@@H]1O` [7B.8]: the “Mics (m) comp remaining 60 min” value in data set [1] is given as 109%. Also, the microsomal CLint at 10 µM in data set [1] was less than 1 µL/min/mg; in data set [14] it was 1 µL/min/mg. Further, the values for the fraction unbound at 4 h, 100 µM in data set [2] (setting [15]), in [7] (setting [16]) and in data set [7] (setting [17]) were 0.033, 0.19 and 0.187, respectively. For the same compound, the “dG_exp, experimental binding free energy” value in data set [3] is listed as “–16.0 kcal/mol”. Moreover, the half-life in data set [4] worked out at 0.142 h. Moreover, in [4], the clearance was found to be 8.8 mL/min/kg. Further, the solubility at 2 h in [5] was determined as 87 µM (≈ 48.7 µg/mL). For the same compound, the half-life at 10 µM in [6] and in data set [8] was greater than 2 h each time. For the same compound, the pIC50 is 5.22 in data set [9]; less than 5.00 in [10]; less than 5.00 in data set [11]; less than 5.00 in [12]; less than 5.00 in data set [13]. For the same compound, in [14], the “Mics (hu) comp remaining 60 min” value is 98%.
With `O=P(O)(O)CP(=O)(O)OC[C@H]1O[C@@H](n2ccc3c(-c4ccnc5ccccc45)ncnc32)[C@H](O)[C@@H]1O` [4A.17], the “Mics (m) comp remaining 60 min” value in data set [1] came out at 79%. Further, the microsomal CLint at 10 µM in data set [1] is 9 µL/min/mg; in data set [14], less than 1 µL/min/mg. Also, the fraction unbound at 4 h, 100 µM in data set [2] (Tables 1 and 3, human plasma as printed in footnote, read-out: fup, fraction unbound in human plasma) is 0.8; in data set [2] (setting [15]) it was 0.257; in [7] (setting [17]), 0.8. Further, the “dG_exp, experimental binding free energy” value in [3] is on record as “–14.3 kcal/mol”. In [4], this compound displayed a half-life of 2.15 h. Also, the clearance in data set [4] was 7.2 mL/min/kg. The compound further displayed a solubility at 2 h in data set [5] greater than 100 µM. Besides, the half-life at 10 µM in data set [6] and in data set [8] was greater than 2 h each time. Besides, the negative-log IC50 (pIC50) in data set [9], in [10], in data set [11], in [12] and in [13] was less than 5.00 throughout.
`O=P(O)(O)CP(=O)(O)OC[C@H]1O[C@@H](n2ccc3c(-c4ccc5cc(O)ccc5c4)nc(Cl)nc32)[C@H](O)[C@@H]1O` [7B.32]: the “Mics (m) comp remaining 60 min” value in data set [1] turned out to be 111%. Further, the microsomal CLint at 10 µM in data set [1] and in [14] was less than 2 µL/min/mg each time. Besides, the fraction unbound at 4 h, 100 µM in data set [2] (setting [15]) was 0.084; in data set [7] (setting [16]) it was 0.2; in data set [7] (setting [17]), 0.198. For the same compound, in [3], the “dG_exp, experimental binding free energy” value is “–15.8 kcal/mol”. This compound had a half-life in data set [4] of 0.113 h. Besides, the clearance in [4] was 11 mL/min/kg. Further, the solubility at 2 h in data set [5] was greater than 100 µM. Further, the half-life at 10 µM in data set [6] and in data set [8] was greater than 2 h throughout. Besides, the negative logarithm of the IC50 (pIC50) in data set [9], in data set [10], in data set [11], in data set [12] and in [13] was less than 5.00 each time. Besides, in [14], the “Mics (hu) comp remaining 60 min” value stood at 104%.
On to `Cc1nc(-c2cc3ccccc3o2)c2ccn([C@@H]3O[C@H](COP(=O)(O)CP(=O)(O)O)[C@@H](O)[C@H]3O)c2n1` [18E.8], for which the “Mics (m) comp remaining 60 min” value in [1] worked out at 103%. Besides, the results for the microsomal CLint at 10 µM in data set [1] and in data set [14] were less than 1 µL/min/mg and 2 µL/min/mg, respectively. Also, the fraction unbound at 4 h, 100 µM in data set [2] (setting [15]) is 0.026; in [7] (setting [16]), 0.3; in [7] (setting [17]), 0.302. Moreover, the “dG_exp, experimental binding free energy” value in data set [3] is listed as “–14.7 kcal/mol”. In [4], this compound registered a half-life of 0.25 h. For the same compound, the clearance in data set [4] was 7.4 mL/min/kg. This compound also came in with a solubility at 2 h in [5] of 86 µM (≈ 46.4 µg/mL). Further, the half-life at 10 µM in data set [6] and in [8] was greater than 2 h in each case. Further, the pIC50 in [9], in [10], in [11], in data set [12] and in data set [13] was less than 5.00 each time. Besides, the “Mics (hu) comp remaining 60 min” value in data set [14] was determined as 95%.
Regarding `O=P(O)(O)CP(=O)(O)OC[C@H]1O[C@@H](n2ccc3c(-c4ccc5cc(Cl)ccc5c4)nc(Cl)nc32)[C@H](O)[C@@H]1O` [7B.27], in [1], the “Mics (m) comp remaining 60 min” value came to 140%. The microsomal CLint at 10 µM in data set [1] and in [14] was less than 2 µL/min/mg throughout. The results for the fraction unbound at 4 h, 100 µM in [2] (setting [15]), in data set [7] (setting [16]) and in data set [7] (setting [17]) were no more than 0.01, 0.04 and 0.036, respectively. Moreover, in data set [3], the “dG_exp, experimental binding free energy” value is listed as “–15.3 kcal/mol”. This compound displayed a half-life in [4] of 2.43 h. The clearance in data set [4] was 6.7 mL/min/kg. For the same compound, in data set [5], the solubility at 2 h is 89 µM (≈ 53.8 µg/mL). For the same compound, the half-life at 10 µM in data set [6] and in data set [8] was greater than 2 h in each case. Moreover, the pIC50 in [9], in data set [10], in data set [11], in data set [12] and in data set [13] was less than 5.00 in each case. Besides, the “Mics (hu) comp remaining 60 min” value in [14] is on record as 148%.
Consider `O=P(O)(O)CP(=O)(O)OC[C@H]1O[C@@H](n2ccc3c(-c4cc(Br)c5ccccc5c4F)nc(Cl)nc32)[C@H](O)[C@@H]1O` [7B.26], for which, in data set [1], the “Mics (m) comp remaining 60 min” value came out at 113%. The microsomal CLint at 10 µM in data set [1] and in data set [14] was less than 2 µL/min/mg in each case. For the same compound, the fraction unbound at 4 h, 100 µM is no more than 0.01 in [2] (setting [15]), 0.02 in data set [7] (setting [16]) and 0.016 in data set [7] (setting [17]). Moreover, the “dG_exp, experimental binding free energy” value in [3] is “–15.7 kcal/mol”. In data set [4], this compound returned a half-life of 1.67 h. The clearance in data set [4] was 1.1 mL/min/kg. In data set [5], the solubility at 2 h was found to be 71 µM (≈ 47.3 µg/mL). Moreover, the half-life at 10 µM in [6] and in [8] was greater than 2 h in each case. The pIC50 in [9], in data set [10], in data set [11], in data set [12] and in data set [13] was less than 5.00 in each case. In [14], the “Mics (hu) comp remaining 60 min” value is listed as 117%.
